Legend:
[1] = system: double stranded polyriboadenylic acid (ds poly-A) (RNA, polymer) A; assay: circular dichroism; settings: 10 mM citrate-phosphate buffer, pH 4.5, 20°C; 100.0 µM ds poly-A, up to 55.60 µM ST
[2] = system: double stranded polyriboadenylic acid (ds poly-A) (RNA, polymer) A; assay: absorption titration; settings: 10 mM citrate-phosphate buffer, pH 4.5, 20°C; up to P/D 100 (301.09 µM ds poly-A, 3.05 µM ST)
[3] = system: double stranded polyriboadenylic acid (ds poly-A) (RNA, polymer) A; assay: fluorescence titration; settings: 10 mM citrate-phosphate buffer, pH 4.5, 20°C; up to P/D 100 (510.50 µM ds poly-A, 5.0 µM ST)
[4] = system: double stranded polyriboadenylic acid (ds poly-A) (RNA, polymer) A; assay: thermal melting profile (CD); settings: 10 mM citrate-phosphate buffer, pH 4.5; 100.0 µM ds poly-A, D/P 0.53; no change, transition around 74°C
[5] = system: single stranded polyriboadenylic acid (ss poly-A) (RNA, polymer) A; assay: absorption titration, Scatchard, McGhee-von Hippel fit; settings: 10 mM Na+; 10 mM citrate-phosphate buffer, pH 7.0, 20°C; intrinsic constant, per nucleotide; per base
[6] = system: single stranded polyriboadenylic acid (ss poly-A) (RNA, polymer) A; assay: fluorescence titration, Scatchard, McGhee-von Hippel fit; settings: 10 mM Na+; 10 mM citrate-phosphate buffer, pH 7.0, 20°C; intrinsic constant, per nucleotide; per base

binding [1]: no | binding [2]: no | binding [3]: no | binding [4]: no | K′ [5]: 5.98±0.20 × 10^5 M^-1 | K′ [6]: 6.15±0.20 × 10^5 M^-1
SMILES: Cc1cc2nc3cc(C)c(N)cc3[n+](-c3ccccc3)c2cc1N

Source: paper PMC3912202 (2014)
